In ChEMBL document CHEMBL1143809, “New bis-N9-(methylphenylmethyl)purine derivatives: synthesis and antitumor activity” (2007):

Assays:
Assay type in all cases: functional
IGROV-1 = assay: Growth inhibition of human IGROV1 cells after 48 hrs by SRB protein assay; conditions: IGROV-1, 48 h
UACC-257 = assay: Growth inhibition of human UACC257 cells after 48 hrs by SRB protein assay; conditions: UACC-257, 48 h
CAKI-1 = assay: Growth inhibition of human CAKI1 cells after 48 hrs by SRB protein assay; conditions: CAKI-1, 48 h
OVCAR-3 = assay: Growth inhibition of human OVCAR-3 cells after 48 hrs by SRB protein assay; conditions: OVCAR-3, 48 h
UACC-62 = assay: Growth inhibition of human UACC62 cells after 48 hrs by SRB protein assay; conditions: UACC-62, 48 h
OVCAR-8 = assay: Growth inhibition of human OVCAR8 cells after 48 hrs by SRB protein assay; conditions: OVCAR-8, 48 h
U-251 = assay: Growth inhibition of human U251 cells after 48 hrs by SRB protein assay; conditions: U-251, 48 h
PC-3 = assay: Growth inhibition of human PC3 cells after 48 hrs by SRB protein assay; conditions: PC-3, 48 h
MCF7 = assay: Anticancer activity against human MCF7 cells assessed as growth at 100 uM after 48 hrs by SRB protein assay relative to control; conditions: MCF7, 48 h, read-out: Activity
MOLT-4 = assay: Growth inhibition of human MOLT4 cells after 48 hrs by SRB protein assay; conditions: MOLT-4, 48 h
HCT-116 = assay: Growth inhibition of human HCT116 cells after 48 hrs by SRB protein assay; conditions: HCT-116, 48 h
[1] = Growth inhibition of human NCL-H23 cells after 48 hrs by SRB protein assay; conditions: NCL-H23, 48 h
RXF 393 = assay: Growth inhibition of human RXF393 cells after 48 hrs by SRB protein assay; conditions: RXF 393, 48 h
SW-620 = assay: Growth inhibition of human SW620 cells after 48 hrs by SRB protein assay; conditions: SW-620, 48 h
ACHN = assay: Growth inhibition of human ACHN cells after 48 hrs by SRB protein assay
TK-10 = assay: Growth inhibition of human TK10 cells after 48 hrs by SRB protein assay; conditions: TK-10, 48 h
K562 = assay: Growth inhibition of human K562 cells after 48 hrs by SRB protein assay; conditions: K562, 48 h
NCI/ADR-RES = assay: Growth inhibition of human NCI/ADR-RES cells after 48 hrs by SRB protein assay
EKVX = assay: Growth inhibition of human EKVX cells after 48 hrs by SRB protein assay
CCRF-CEM = assay: Growth inhibition of human CCRF-CEM cells after 48 hrs by SRB protein assay
SNB-75 = assay: Growth inhibition of human SNB75 cells after 48 hrs by SRB protein assay; conditions: SNB-75, 48 h
SF-539 = assay: Growth inhibition of human SF539 cells after 48 hrs by SRB protein assay; conditions: SF-539, 48 h
SK-MEL-5 = assay: Growth inhibition of human SK-MEL-5 cells after 48 hrs by SRB protein assay; conditions: SK-MEL-5, 48 h
SF-268 [2] = assay: Growth inhibition of human SF268 cells after 48 hrs by SRB protein assay; conditions: SF-268, 48 h
COLO 205 = assay: Growth inhibition of human COLO205 cells after 48 hrs by SRB protein assay; conditions: COLO 205, 48 h
[3] = Growth inhibition of human LOX MIVI cells after 48 hrs by SRB protein assay
BT-549 = assay: Growth inhibition of human BT549 cells after 48 hrs by SRB protein assay; conditions: BT-549, 48 h
SF-268 [4] = assay: Anticancer activity against human SF268 cells assessed as growth at 100 uM after 48 hrs by SRB protein assay relative to control; conditions: SF-268, 48 h, read-out: Activity
HOP-62 = assay: Growth inhibition of human HOP62 cells after 48 hrs by SRB protein assay; conditions: HOP-62, 48 h
NCI-H460 = assay: Growth inhibition of human NCL-H460 cells after 48 hrs by SRB protein assay; conditions: NCI-H460, 48 h
SK-MEL-28 = assay: Growth inhibition of human SK-MEL-28 cells after 48 hrs by SRB protein assay; conditions: SK-MEL-28, 48 h
HOP-92 = assay: Growth inhibition of human HOP92 cells after 48 hrs by SRB protein assay; conditions: HOP-92, 48 h
OVCAR-4 = assay: Growth inhibition of human OVCAR4 cells after 48 hrs by SRB protein assay; conditions: OVCAR-4, 48 h
[5] = read-out: LC50 (the source's name)

Clc1nc(Cl)c2ncn(Cc3cccc(Cn4cnc5c(Cl)nc(Cl)nc54)c3)c2n1
GI50 (IGROV-1): 7.41 µM | LC50 (50% lethal concentration) (IGROV-1): 47.9 µM | TGI (IGROV-1): 20.4 µM | GI50 (UACC-257): 4.78 µM | TGI (UACC-257): 17.4 µM | CC50 (UACC-257; [5]): 56.2 µM | GI50 (CAKI-1): 12 µM | TGI (CAKI-1): 26.3 µM | CC50 (CAKI-1; [5]): 57.5 µM | GI50 (OVCAR-3): 2.39 µM | LC50 (OVCAR-3): 28.2 µM | TGI (OVCAR-3): 7.24 µM | GI50 (UACC-62): 2.39 µM | LC50 (concentration killing 50% of cells) (UACC-62): 22.4 µM | TGI (UACC-62): 5.88 µM | GI50 (OVCAR-8): 4.67 µM | LC50 (OVCAR-8): 72.4 µM | TGI (OVCAR-8): 18.6 µM | GI50 (U-251): 3.89 µM | TGI (U-251): 13.8 µM | CC50 (U-251; [5]): 38.9 µM | GI50 (PC-3): 3.98 µM | TGI (PC-3): 13.5 µM | CC50 (PC-3; [5]): 40.7 µM | growth at 100 µM (MCF7): 0% | GI50 (MOLT-4): 3.46 µM | LC50 (MOLT-4): > 100 µM | TGI (MOLT-4): 13.8 µM | GI50 (HCT-116): 5.75 µM | TGI (HCT-116): 22.4 µM | CC50 (HCT-116; [5]): 9.33 µM | GI50 [1]: 8.51 µM | LC50 [1]: 52.5 µM | TGI [1]: 21.9 µM | GI50 (RXF 393): 1.9 µM | TGI (RXF 393): 3.71 µM | CC50 (RXF 393; [5]): 7.24 µM | GI50 (SW-620): 1.82 µM | TGI (SW-620): 3.31 µM | CC50 (SW-620; [5]): 6.16 µM | GI50 (ACHN): 2.51 µM | LC50 (ACHN): 21.4 µM | TGI (ACHN): 6.16 µM | GI50 (TK-10): 2.45 µM | LC50 (50% lethal concentration) (TK-10): 26.9 µM | TGI (TK-10): 7.24 µM | GI50 (K562): 3.09 µM | TGI (K562): 17 µM | CC50 (K562; [5]): > 100 µM | GI50 (NCI/ADR-RES): 12.6 µM | LC50 (NCI/ADR-RES): 97.7 µM | TGI (NCI/ADR-RES): 34.7 µM | GI50 (EKVX): 3.09 µM | LC50 (EKVX): 41.7 µM | TGI (EKVX): 11 µM | GI50 (CCRF-CEM): 2.23 µM | TGI (CCRF-CEM): 5.37 µM | CC50 (CCRF-CEM; [5]): > 100 µM | GI50 (SNB-75): 2.23 µM | TGI (SNB-75): 5.62 µM | CC50 (SNB-75; [5]): 93.3 µM | GI50 (SF-539): 1.38 µM | LC50 (SF-539): 7.07 µM | TGI (SF-539): 3.16 µM | GI50 (SK-MEL-5): 2.45 µM | LC50 (SK-MEL-5): 22.4 µM | TGI (SK-MEL-5): 5.88 µM | GI50 (SF-268 [2]): 12.9 µM | LC50 (SF-268 [2]): 75.9 µM | TGI (SF-268 [2]): 31.6 µM | GI50 (COLO 205): 3.38 µM | LC50 (COLO 205): > 100 µM | TGI (COLO 205): > 11.2 µM | GI50 [3]: 2.23 µM | LC50 [3]: 21.9 µM | TGI [3]: 5.62 µM | GI50 (BT-549): 3.38 µM | TGI (BT-549): 11 µM | CC50 (BT-549; [5]): 34.7 µM | growth at 100 µM (SF-268 [4]): 0% | GI50 (HOP-62): 5.01 µM | LC50 (HOP-62): 51.3 µM | TGI (HOP-62): 17.8 µM | GI50 (NCI-H460): 3.71 µM | TGI (NCI-H460): 13.5 µM | CC50 (NCI-H460; [5]): 58.9 µM | GI50 (SK-MEL-28): 4.26 µM | LC50 (SK-MEL-28): > 100 µM | TGI (SK-MEL-28): 22.4 µM | GI50 (HOP-92): 6.16 µM | LC50 (HOP-92): 70.8 µM | TGI (HOP-92): 22.4 µM | GI50 (OVCAR-4): 15.1 µM | LC50 (OVCAR-4): 55 µM | TGI (OVCAR-4): 28.8 µM
